Source: PubChem BioAssay (NCI)
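Five compound concentrations were applied to cells in 96-well plates for 48 hours; endpoints were derived by simple linear interpolation of the resulting dose-response curve. GI50 marks 50% less growth. TGI is the concentration that stops growth completely.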 *1 amine or outer side, *2 acyl side, *3 side chain or, on linkers, in order; H or OH if unused. Where a SMILES comes first, the peptide text is derived from it. [ ]: non-standard residue; d: D form. The star is where a group is joined. X11 = C/C=C/CC(C)C(O)[C@H](N[*:1])C(=O)[*:2]; Decanoyl = CCCCCCCCCC(=O)*; Leu(ol) = CC(C)C[C@H](N)CO; Iva = CC[C@](C)(N)C(=O)O; Aib = CC(C)(N)C(=O)O

Tests used:
Assay in all cases: NCI-60 cell line screen, 48 h
RXF 393 renal = system: RXF 393 renal
MDA-MB-231 breast = system: MDA-MB-231 breast
HOP-62 NSCLC = system: HOP-62 NSCLC
MDA-MB-435 = system: MDA-MB-435
786-0 renal = system: 786-0 renal
IGROV1 ovarian = system: IGROV1 ovarian
U251 CNS = system: U251 CNS
CCRF-CEM leukemia = system: CCRF-CEM leukemia
A498 renal = system: A498 renal
MALME-3M melanoma = system: MALME-3M melanoma
HS 578T breast = system: HS 578T breast
T-47D breast = system: T-47D breast
HOP-92 NSCLC = system: HOP-92 NSCLC
SK-MEL-2 melanoma = system: SK-MEL-2 melanoma
SK-OV-3 ovarian = system: SK-OV-3 ovarian
NCI-H522 lung = system: NCI-H522 lung
EKVX NSCLC = system: EKVX NSCLC
UO-31 renal = system: UO-31 renal
SF-268 CNS = system: SF-268 CNS
SR leukemia = system: SR leukemia
PC-3 prostate = system: PC-3 prostate
M14 melanoma = system: M14 melanoma
NCI/ADR-RES ovarian = system: NCI/ADR-RES ovarian
SNB-19 CNS = system: SNB-19 CNS
DU-145 prostate = system: DU-145 prostate
HCT-15 colon = system: HCT-15 colon
SN12C renal = system: SN12C renal
NCI-H460 lung = system: NCI-H460 lung
OVCAR-5 ovarian = system: OVCAR-5 ovarian

Q: `C/C=C/CC(C)C(O)[C@H](NC(=O)[C@@H]1CCCN1C(=O)[C@](C)(CC)NC(=O)CCCCCCCCC)C(=O)N[C@@](C)(CC)C(=O)N[C@@H](CCC(N)=O)C(=O)N[C@H](CCC(N)=O)C(=O)NC(C)(C)C(=O)NC(C)(C)C(=O)N[C@@H](CCC(N)=O)C(=O)N[C@H](CC(C)C)C(=O)N[C@H](CO)CC(C)C` (stereo partly drawn) (Decanoyl-[Iva]P[X11][Iva]Q[dQ][Aib][Aib]Q[dL][Leu(ol)]) was tested. Which GI50 (RXF 393 renal) did it give?
A: 2.02 µM

Q: What about the TGI (RXF 393 renal) of the same molecule?
A: 3.64 µM

Q: And the GI50 (MDA-MB-231 breast)?
A: 1.78 µM

Q: And the TGI (MDA-MB-231 breast)?
A: 3.25 µM

Q: What about the GI50 (HOP-62 NSCLC) of the same molecule?
A: 1.63 µM

Q: What about the TGI (HOP-62 NSCLC) of the same molecule?
A: 3.27 µM

Q: What about the GI50 (MDA-MB-435) of the same molecule?
A: 1.77 µM

Q: What about the TGI (MDA-MB-435) of the same molecule?
A: 3.17 µM

Q: What about the GI50 (786-0 renal) of the same molecule?
A: 1.81 µM

Q: And the TGI (786-0 renal)?
A: 3.43 µM

Q: What about the GI50 (IGROV1 ovarian) of the same molecule?
A: 1.79 µM

Q: What about the TGI (IGROV1 ovarian) of the same molecule?
A: 3.39 µM

Q: And the GI50 (U251 CNS)?
A: 1.77 µM

Q: And the TGI (U251 CNS)?
A: 3.35 µM

Q: What about the GI50 (CCRF-CEM leukemia) of the same molecule?
A: 1.86 µM

Q: What about the TGI (CCRF-CEM leukemia) of the same molecule?
A: 3.65 µM

Q: What about the GI50 (A498 renal) of the same molecule?
A: 1.9 µM

Q: What about the TGI (A498 renal) of the same molecule?
A: 3.44 µM

Q: And the GI50 (MALME-3M melanoma)?
A: 1.52 µM

Q: And the TGI (MALME-3M melanoma)?
A: 2.92 µM

Q: And the GI50 (HS 578T breast)?
A: 1.8 µM

Q: What about the TGI (HS 578T breast) of the same molecule?
A: 3.48 µM

Q: What about the GI50 (T-47D breast) of the same molecule?
A: 1.59 µM

Q: What about the TGI (T-47D breast) of the same molecule?
A: 3.4 µM

Q: What about the GI50 (HOP-92 NSCLC) of the same molecule?
A: 1.62 µM

Q: What about the TGI (HOP-92 NSCLC) of the same molecule?
A: 3.25 µM

Q: What about the GI50 (SK-MEL-2 melanoma) of the same molecule?
A: 1.77 µM

Q: And the TGI (SK-MEL-2 melanoma)?
A: 3.35 µM

Q: What about the GI50 (SK-OV-3 ovarian) of the same molecule?
A: 1.93 µM

Q: And the TGI (SK-OV-3 ovarian)?
A: 3.95 µM

Q: What about the GI50 (NCI-H522 lung) of the same molecule?
A: 1.77 µM

Q: What about the TGI (NCI-H522 lung) of the same molecule?
A: 3.37 µM

Q: And the GI50 (EKVX NSCLC)?
A: 1.74 µM

Q: What about the TGI (EKVX NSCLC) of the same molecule?
A: 3.29 µM

Q: And the GI50 (UO-31 renal)?
A: 1.54 µM

Q: What about the TGI (UO-31 renal) of the same molecule?
A: 2.91 µM

Q: What about the GI50 (SF-268 CNS) of the same molecule?
A: 1.83 µM

Q: What about the TGI (SF-268 CNS) of the same molecule?
A: 3.45 µM

Q: And the GI50 (SR leukemia)?
A: 1.61 µM

Q: What about the TGI (SR leukemia) of the same molecule?
A: 3.43 µM

Q: And the GI50 (PC-3 prostate)?
A: 1.76 µM

Q: What about the TGI (PC-3 prostate) of the same molecule?
A: 3.26 µM

Q: What about the GI50 (M14 melanoma) of the same molecule?
A: 1.8 µM

Q: And the TGI (M14 melanoma)?
A: 3.37 µM

Q: What about the GI50 (NCI/ADR-RES ovarian) of the same molecule?
A: 1.81 µM

Q: And the TGI (NCI/ADR-RES ovarian)?
A: 3.48 µM

Q: And the GI50 (SNB-19 CNS)?
A: 1.74 µM

Q: What about the TGI (SNB-19 CNS) of the same molecule?
A: 3.18 µM

Q: And the GI50 (DU-145 prostate)?
A: 1.79 µM

Q: And the TGI (DU-145 prostate)?
A: 3.18 µM

Q: What about the GI50 (HCT-15 colon) of the same molecule?
A: 1.86 µM

Q: And the TGI (HCT-15 colon)?
A: 3.67 µM

Q: What about the GI50 (SN12C renal) of the same molecule?
A: 1.67 µM

Q: What about the TGI (SN12C renal) of the same molecule?
A: 3.22 µM

Q: And the GI50 (NCI-H460 lung)?
A: 1.84 µM

Q: And the TGI (NCI-H460 lung)?
A: 3.38 µM

Q: What about the GI50 (OVCAR-5 ovarian) of the same molecule?
A: 1.68 µM

Q: What about the TGI (OVCAR-5 ovarian) of the same molecule?
A: 3.07 µM
